Laboratory results: patent publication US20220282271A1, “HERBICIDE RESISTANT PLANTS AND METHODS OF MAKING AND USING” (OFFICE OF INNOVATION ADVANCEMENT AND COMMERCIALIZATION, priority 2019, published 2022)

Assays:
Type in all cases: in vivo
Details in all cases: 1.0 lb ai/a, applied approximately 3 weeks after emergence, relative to non-treated
[1] = tested on: Crotalaria spectabilis; test: Weed control screen: showy crotalaria
Description: (§1) Herbicides were applied at a spray volume of 280 L/ha with no adjuvant added to any herbicide mixture. Weed control was rated on a 0 to 100 percent phytoxicity scale with 0 being no plant injury/phytotoxicity and 100 being complete plant dessication. Twenty-one weeds were evaluated for response to herbicides (Table 3). The weeds selected were a mixture of weeds common in agronomic and horticultural crops. Herbicide was applied to all species approximately 3 weeks after emergence. Plant phytotoxicity rated as percent control relative to the non-treated.

[2] = tested on: Sida spinosa; test: Weed control screen: prickly sida
Description: as §1

[3] = tested on: Ipomoea coccinea; test: Weed control screen: red morningglory
Description: as §1

[4] = tested on: Amaranthus hybridus; test: Weed control screen: smooth pigweed
Description: as §1

Question: Which “Percent control (0 to 100)” value [1] does the source give for `CC(C)Oc1cc(-n2nc(C(C)(C)C)oc2=O)c(Cl)cc1Cl` [Oxadiazon, oxadiazon] here?
Answer: The value was 99%.

Question: And the “Percent control (0 to 100)” value [2]?
Answer: Its value is 90%.

Question: What about the “Percent control (0 to 100)” value [3] of the same molecule?
Answer: The value was 100%.

Question: What about the “Percent control (0 to 100)” value [4] of the same molecule?
Answer: Its value is 100%.
